pIC50, pKi: −log10 of the molar value. “And” between values parts separate entries of the source, which are not always exact repeats. Equal entries are not always repeated.
Tests used:
[1] = test system: Cricetinae gen. sp.; assay: Percentage lowering of the total serum cholesterol in male hamsters at a dose of 25 mg/dL orally administered for 14 days; format: functional, Cricetulus griseus
[2] = test system: Cricetinae gen. sp.; assay: Effect on total serum cholesterol in male hamsters at a dose of 100 mg/kg orally administered for 14 days; format: functional, Cricetulus griseus; settings: route oral
[3] = test system: Cricetinae gen. sp.; assay: Effect on total serum cholesterol in male hamsters at a dose of 75 mg/kg orally administered for 14 days; format: functional, Cricetulus griseus; settings: route oral
[4] = test system: Cricetinae gen. sp.; assay: Percentage lowering of the total serum cholesterol in male hamsters at a dose of 100 […] orally administered for 14 days; format: functional, Cricetulus griseus
[5] = test system: Cricetinae gen. sp.; assay: Effect on total serum cholesterol in male hamsters at a dose of 50 mg/kg orally administered for 14 days; format: functional, Cricetulus griseus; settings: route oral
[6] = test system: Cricetinae gen. sp.; assay: Percentage lowering of the total serum cholesterol in male hamsters at a dose of 75 mg/dL orally administered for 14 days; format: functional, Cricetulus griseus
[7] = test system: Cricetinae gen. sp.; assay: Percentage lowering of the total serum cholesterol in male hamsters at a dose of 50 mg/dL orally administered for 14 days; format: functional, Cricetulus griseus
[8] = test system: Cricetinae gen. sp.; assay: Effect on total serum cholesterol in male hamsters at a dose of 25 mg/kg orally administered for 14 days; format: functional, Cricetulus griseus; settings: route oral
[9] = test system: Cricetinae gen. sp.; assay: Percentage lowering of the total serum cholesterol in male hamsters at a dose of 200 […] orally administered for 14 days; format: functional, Cricetulus griseus
[10] = species on record: Homo sapiens; assay: Inhibition of cellular cholesterol biosynthesis using human fibroblasts in tissue culture; format: functional, organism-based
[11] = test system: Cricetinae gen. sp.; assay: Percentage increase of the total serum cholesterol in male hamsters at a dose of 25 […] orally administered for 14 days; format: functional, Cricetulus griseus
[12] = biological target: T1, Lanosterol 14-alpha demethylase (Rattus norvegicus, UniProt Q64654); assay: Inhibition of lanosterol 14-alpha-demethylase of rat hepatic microsomes
T1 sequence (Q64654 whole entry): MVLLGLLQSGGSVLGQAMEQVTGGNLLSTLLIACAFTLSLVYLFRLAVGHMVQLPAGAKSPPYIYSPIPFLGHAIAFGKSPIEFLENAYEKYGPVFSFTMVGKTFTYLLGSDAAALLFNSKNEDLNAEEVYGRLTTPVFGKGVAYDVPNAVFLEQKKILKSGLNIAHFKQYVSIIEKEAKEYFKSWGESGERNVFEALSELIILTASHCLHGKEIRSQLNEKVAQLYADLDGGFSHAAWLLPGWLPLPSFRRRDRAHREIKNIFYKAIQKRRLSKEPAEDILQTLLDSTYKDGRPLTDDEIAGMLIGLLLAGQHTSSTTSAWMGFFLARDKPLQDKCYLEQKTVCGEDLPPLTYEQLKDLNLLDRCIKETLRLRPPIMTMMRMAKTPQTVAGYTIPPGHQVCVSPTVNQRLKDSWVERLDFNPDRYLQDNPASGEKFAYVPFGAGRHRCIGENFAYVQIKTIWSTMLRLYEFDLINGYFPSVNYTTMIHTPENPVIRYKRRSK

[13] = test system: Cricetinae gen. sp.; assay: Effect on total serum cholesterol in male hamsters at a dose of 200 mg/kg orally administered for 14 days; format: functional, Cricetulus griseus; settings: route oral
[14] = test system: Cricetinae gen. sp.; assay: Effect on total serum cholesterol in male hamsters at a dose of 60 mg/kg orally administered for 3 days; format: functional, Cricetulus griseus; settings: route oral
[15] = test system: Cricetinae gen. sp.; assay: Percentage lowering of the total serum cholesterol in male hamsters at a dose of 60 […] orally administered for 3 days; format: functional, Cricetulus griseus
[16] = test system: Cricetinae gen. sp.; assay: Percentage lowering of the total serum cholesterol in male hamsters at a dose of 5 mg/dL orally administered for 14 days; format: functional, Cricetulus griseus
[17] = test system: Cricetinae gen. sp.; assay: Effect on total serum cholesterol in male hamsters at a dose of 5 mg/kg orally administered for 14 days; format: functional, Cricetulus griseus; settings: route oral
[18] = test system: Cricetinae gen. sp.; assay: Effect on total serum cholesterol in male hamsters at a dose of 150 mg/kg orally administered for 14 days; format: functional, Cricetulus griseus; settings: route oral
[19] = test system: Cricetinae gen. sp.; assay: Percentage lowering of the total serum cholesterol in male hamsters at a dose of 150 […] orally administered for 14 days; format: functional, Cricetulus griseus
[20] = test system: Cricetinae gen. sp.; assay: Percentage lowering of the total serum cholesterol in male hamsters at a dose of 10 […] orally administered for 14 days; format: functional, Cricetulus griseus
[21] = test system: Cricetinae gen. sp.; assay: Effect on total serum cholesterol in male hamsters at a dose of 10 mg/kg orally administered for 14 days; format: functional, Cricetulus griseus; settings: route oral
[22] = Inhibition of lanosterol 14-alpha-demethylation in hepatic microsomes from hamster; format: functional, Cricetulus griseus, Liver
[23] = test system: Cricetinae gen. sp.; assay: Percentage lowering of the total serum cholesterol in male hamsters at a dose of 30 mg/dL orally administered for 3 days; format: functional, Cricetulus griseus
[24] = test system: Cricetinae gen. sp.; assay: Percentage lowering of the total serum cholesterol in male hamsters at a dose of 100 […] orally administered for 3 days; format: functional, Cricetulus griseus
[25] = test system: Cricetinae gen. sp.; assay: Effect on total serum cholesterol in male hamsters at a dose of 10 mg/kg orally administered for 3 days; format: functional, Cricetulus griseus; settings: route oral
[26] = test system: Cricetinae gen. sp.; assay: Effect on total serum cholesterol in male hamsters at a dose of 30 mg/kg orally administered for 3 days; format: functional, Cricetulus griseus; settings: route oral
[27] = test system: Cricetinae gen. sp.; assay: Percentage lowering of the total serum cholesterol in male hamsters at a dose of 10 […] orally administered for 3 days; format: functional, Cricetulus griseus
[28] = Inhibition of lanosterol 14-alpha-demethylation in hepatic microsomes from rat; format: functional, Liver
[29] = biological target: T2, Steroid 17-alpha-hydroxylase/17,20 lyase (Homo sapiens, UniProt P05093); assay: Binding affinity for progesterone 17-alpha,20-lyase
T2 sequence (P05093 whole entry): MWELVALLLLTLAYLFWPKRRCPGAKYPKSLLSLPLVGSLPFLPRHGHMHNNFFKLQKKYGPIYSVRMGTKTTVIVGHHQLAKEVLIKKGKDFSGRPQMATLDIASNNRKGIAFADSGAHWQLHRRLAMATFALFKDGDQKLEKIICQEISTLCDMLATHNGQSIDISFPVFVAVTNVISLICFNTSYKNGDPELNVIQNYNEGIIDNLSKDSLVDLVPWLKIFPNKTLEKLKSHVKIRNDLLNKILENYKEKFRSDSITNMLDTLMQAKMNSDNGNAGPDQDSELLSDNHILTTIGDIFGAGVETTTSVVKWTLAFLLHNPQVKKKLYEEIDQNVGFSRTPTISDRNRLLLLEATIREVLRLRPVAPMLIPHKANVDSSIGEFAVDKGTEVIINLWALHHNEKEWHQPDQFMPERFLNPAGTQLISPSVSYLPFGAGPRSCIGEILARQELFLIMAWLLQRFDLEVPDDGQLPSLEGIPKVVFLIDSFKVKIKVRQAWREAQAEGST

[30] = test system: Cricetinae gen. sp.; assay: Effect on total serum cholesterol in male hamsters at a dose of 100 mg/kg orally administered for 3 days; format: functional, Cricetulus griseus; settings: route oral
[31] = biological target: Cytochrome P450 3A4 (Homo sapiens, UniProt P08684); assay: Binding affinity for progesterone 6-beta-hydroxylase of hepatic microsomes; format: ADME
Cytochrome P450 3A4, sequence (P08684 whole entry): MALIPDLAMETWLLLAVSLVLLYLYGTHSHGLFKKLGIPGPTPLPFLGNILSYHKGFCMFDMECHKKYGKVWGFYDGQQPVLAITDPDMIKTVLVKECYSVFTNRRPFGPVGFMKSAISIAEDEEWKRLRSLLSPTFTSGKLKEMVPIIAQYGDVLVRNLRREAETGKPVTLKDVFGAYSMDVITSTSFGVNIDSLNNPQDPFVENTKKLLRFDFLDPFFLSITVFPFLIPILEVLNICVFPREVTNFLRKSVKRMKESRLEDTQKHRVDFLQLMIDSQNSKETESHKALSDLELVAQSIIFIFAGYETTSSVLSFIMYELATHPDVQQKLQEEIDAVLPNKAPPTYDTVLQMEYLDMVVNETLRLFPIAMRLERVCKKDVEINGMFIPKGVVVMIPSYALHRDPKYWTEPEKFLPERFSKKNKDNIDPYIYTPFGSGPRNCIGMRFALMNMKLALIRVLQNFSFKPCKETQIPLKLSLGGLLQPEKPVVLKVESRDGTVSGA

[32] = biological target: T2, Steroid 17-alpha-hydroxylase/17,20 lyase; assay: Binding affinity for […] 17-alpha-hydroxylase
[33] = biological target: T3, Cytochrome P450 11B1, mitochondrial (Homo sapiens, UniProt P15538); assay: Binding affinity for corticoid 11-beta-hydroxylase
T3 sequence (P15538 whole entry): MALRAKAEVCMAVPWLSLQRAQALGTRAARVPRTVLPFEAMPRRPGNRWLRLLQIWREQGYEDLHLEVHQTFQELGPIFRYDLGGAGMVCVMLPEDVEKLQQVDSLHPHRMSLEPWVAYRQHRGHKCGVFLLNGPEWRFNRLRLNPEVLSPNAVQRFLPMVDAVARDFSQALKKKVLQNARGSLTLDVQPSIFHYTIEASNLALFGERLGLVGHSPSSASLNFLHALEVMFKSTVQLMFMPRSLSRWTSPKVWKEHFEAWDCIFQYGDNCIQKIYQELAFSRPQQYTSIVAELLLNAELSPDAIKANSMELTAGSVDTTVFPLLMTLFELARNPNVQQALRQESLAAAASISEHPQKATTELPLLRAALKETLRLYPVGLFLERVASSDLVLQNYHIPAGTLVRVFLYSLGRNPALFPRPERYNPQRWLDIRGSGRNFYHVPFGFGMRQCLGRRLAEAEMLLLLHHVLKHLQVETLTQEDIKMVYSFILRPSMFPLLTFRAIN

[34] = Inhibition of lanosterol 14-alpha-demethylation in hepatic microsomes from human; format: functional, Liver
[35] = biological target: T4, Aromatase (Homo sapiens, UniProt P11511); assay: Binding affinity for Cytochrome P450 19A1
T4 sequence (P11511 whole entry): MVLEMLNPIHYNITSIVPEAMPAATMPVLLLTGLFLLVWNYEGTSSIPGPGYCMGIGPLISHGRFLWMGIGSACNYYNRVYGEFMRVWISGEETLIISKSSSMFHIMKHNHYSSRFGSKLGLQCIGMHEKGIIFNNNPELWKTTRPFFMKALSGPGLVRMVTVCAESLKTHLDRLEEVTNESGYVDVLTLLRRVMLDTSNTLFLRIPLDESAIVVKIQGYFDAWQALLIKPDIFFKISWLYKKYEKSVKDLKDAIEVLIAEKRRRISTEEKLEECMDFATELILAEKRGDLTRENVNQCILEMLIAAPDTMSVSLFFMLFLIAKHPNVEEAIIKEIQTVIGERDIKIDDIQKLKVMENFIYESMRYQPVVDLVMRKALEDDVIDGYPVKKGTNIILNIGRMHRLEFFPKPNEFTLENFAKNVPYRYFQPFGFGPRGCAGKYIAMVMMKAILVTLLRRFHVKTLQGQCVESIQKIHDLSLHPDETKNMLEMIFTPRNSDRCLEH

[36] = test system: Cricetinae gen. sp.; assay: Percentage increase of the total serum cholesterol in male hamsters at a dose of 10 […] orally administered for 14 days; format: functional, Cricetulus griseus

## Cl.Cl.Cl.Nc1ccc(SC[C@@H]2CO[C@](CCc3ccc(Cl)cc3)(Cn3ccnc3)O2)cc1
[1]
  Lowering: 8%
[2]
  TC: 65.6 mg/dL
[3]
  TC: 76 mg/dL
[4]
  Lowering: 49%
[5]
  TC: 88.9 mg/dL
[6]
  Lowering: 40%
[7]
  Lowering: 30%
[8]
  TC: 117.4 mg/dL

## CC(=O)N1CCN(c2ccc(OCC3COC(Cn4ccnc4)(c4ccc(Cl)cc4Cl)O3)cc2)CC1 (centres undefined) [KETOCONAZOLE]
[2]
  TC: 105 mg/dL
[9]
  Lowering: 30%
[4]
  Lowering: 11%
[10]
  pIC50: 7.43
[5]
  TC: 111.4 mg/dL
[11]
  Increase: 6%
[12]
  pKi: 7.19
[13]
  TC: 83.1 mg/dL
[7]
  Lowering: 6%
[8]
  TC: 125.2 mg/dL

## Nc1ccc(SC[C@H]2CO[C@](CCc3ccc(Cl)cc3)(Cn3ccnc3)O2)cc1
[14]
  TC: 85.1 mg/dL
[15]
  Lowering: 40%

## CC[C@H](C)C(=O)O[C@H]1C[C@@H](C)C=C2C=C[C@H](C)[C@H](CC[C@@H]3C[C@@H](O)CC(=O)O3)[C@H]21 [LOVASTATIN]
[1]
  Lowering: 6% and 10%
[2]
  TC: 94.9 mg/dL
[9]
  Lowering: 38%
[16]
  Lowering: 5%
[4]
  Lowering: 26%
[17]
  TC: 112.2 mg/dL
[5]; 50 mg/kg
  TC: 99.4 mg/dL and 102 mg/dL
[18]
  TC: 80.3 mg/dL
[13]
  TC: 79.5 mg/dL
[19]
  Lowering: 37%
[20]
  Lowering: 13%
[7]
  Lowering: 16% and 19%
[8]; 25 mg/kg
  TC: 111.2 mg/dL and 114 mg/dL
[21]
  TC: 102.8 mg/dL

## Nc1ccc(SC[C@@H]2CO[C@](CCc3ccc(Cl)cc3)(Cn3ccnc3)O2)cc1 [AZALANSTAT]
[22]
  pKi: 8.85
[1]
  Lowering: 30%
[23]
  Lowering: 36%
[24]
  Lowering: 62%
[25]
  TC: 85.1 mg/dL
[16]
  Lowering: 2%
[26]
  TC: 71 mg/dL
[27]
  Lowering: 23%
[17]
  TC: 115.5 mg/dL
[10]
  pIC50: 10.05
[5]
  TC: 74.7 mg/dL
[28]
  pKi: 8.60
[29]
  pKi: 6.35
[30]
  TC: 41.8 mg/dL
[31]
  pKi: 7.55
[32]
  pKi: 5.79
[20]
  Lowering: 12%
[33]
  pKi: 7.46
[7]
  Lowering: 37%
[8]
  TC: 82.9 mg/dL
[34]
  pKi: 9.10
[35]
  pKi: 8.12
[21]
  TC: 104 mg/dL

## Nc1ccc(SC[C@H]2CO[C@@](CCc3ccc(Cl)cc3)(Cn3ccnc3)O2)cc1
[23]
  Lowering: 13%
[24]
  Lowering: 22%
[25]
  TC: 105.7 mg/dL
[26]
  TC: 96.4 mg/dL
[27]
  Lowering: 5%
[10]
  pIC50: 8.10
[29]
  pKi: 7.27
[30]
  TC: 86 mg/dL
[31]
  pKi: 7.48
[32]
  pKi: 6.96
[33]
  pKi: 7.82
[35]
  pKi: 7.89

## Nc1ccc(SC[C@@H]2CO[C@@](CCc3ccc(Cl)cc3)(Cn3ccnc3)O2)cc1
[2]
  TC: 113.3 mg/dL
[14]
  TC: 120.4 mg/dL
[15]
  Lowering: 15%
[4]
  Lowering: 4%
[5]
  TC: 112.4 mg/dL
[11]
  Increase: 6%
[36]
  Increase: 6%
[7]
  Lowering: 6%
[8]
  TC: 125.8 mg/dL
[21]
  TC: 125.2 mg/dL

Source: ChEMBL document CHEMBL1127068, “Selective inhibition of mammalian lanosterol 14 alpha-demethylase: a possible strategy for cholesterol lowering” (J Med Chem, 1993)
